In US20230277491A1, “PHARMACEUTICAL COMBINATION COMPRISING GLYCOLIC ACID AND L-ALANINE” (priority 2020, published 2023):

Experiments:
[1] = human, in vivo
Description: Preliminary pharmacokinetic analyses were undertaken in order to determine whether the GA and DL administered to the patients orally were absorbed into the blood stream and into the CSF. […] As can also be observed, DL levels reach 140 mg/L in the blood 1-hour post-administration and are reduced to approx. 20 mg/I after 2- or 3-hours post-administration.
As can be observed in FIG. 9, GA levels are approximately 20 mg/I in the CSF 1-hour post-administration. As can also be observed, DL levels are approximately 5 mg/I in the CSF 1-hour post-administration. 100 mg/kg GA and 100 mg/kg DL was administered in patients to obtain the pharmacokinetic data.

dopaminergic neurons [2] = experiment: Morphology of dopaminergic TH+ neurons in primary mesencephalic culture; type: cell-based, mouse; conditions: 5 mM GA, FIG. 14
Description: Effect of GA treatment on the morphology of dopaminergic neurons. Fluorescent microscopy images on the left show to TH+ neurons in a primary mesencephalic cell culture with (GA) and without (Control) treatment. […] FIG. 16:
(§1) Primary mesencephalic neuronal cell cultures were prepared as previously described. Briefly, E14.5 embryos were obtained from C57JBL6 pregnant mice after cervical dislocation. Brain mesencephali were dissected under the microscope and digested with Trypsin-EDTA 0.12% (Life Technologies, USA) for 7 min. The trypsin reaction was then stopped by adding basic medium (BM), containing Neurobasal A medium (Gibco, USA), 1 mg/mL Pen/Strep, 10% FCS, and […] L-Glutamine, and cells were mechanically dissociated using a fire-polished Pasteur pipette. Medium was fully replaced after 5 min, centrifugation at 1200 rpm, aspiring the supernatant and adding 8 mL of fresh BM to the pellet. Concentration of cells in the medium was estimated using a Neubauer chamber and a 100 μL of medium containing 10^6 cells/mL plated per well in a 96-well plate (Greiner Sensoplate, Germany, EU). […]
[…] The effect of GA and DL on dopaminergic neurons was assessed through semi-automatic quantification of neurite length and width of TH+ neurons after treatment. […] Dopaminergic TH^+ neurons were observed using an inverted fluorescence microscope (Olympus) under a 20× objective.

patients with ALS = experiment: Individualised clinical trials in ALS patients: therapeutic effect (creatine kinase, gripping force, muscle strength); conditions: human patients, in some cases
Description: Gripping force measured in kilograms with the help of a Digital Hand Dynamometer once a week to every two weeks.
Evolution of the muscle strength on the right arm was measured once a week to every two weeks using the Janda Muscle Strength Scale.
Patients with ALS were recruited for the study and agreed to all legal regulations surrounding the curative attempt. Potential side effects were closely monitored. Liver and kidney values were checked once a week (1 day after dosing), in order to monitor whether any unwanted side effects were observed. To test the therapeutic effect, the evolution of the ALS score and strength evolution were measured over time.
All patients also received 6 grams of L-Alanine per day.
The above-mentioned treatment regime was conducted in 4 patients, either with FUS, TARDBP or SOD-1 mutations underlying their ALS. […] The patients were treated between 4 months and 17 months.

[3] = male Wistar rats; cited from earlier work
PARK-7 −/− HeLa cells = experiment: Cell growth of PARK-7 −/− HeLa cells; type: cell-based, human; conditions: 5 mM, FIG. 16
Description: GA enhances cell proliferation in PARK-7 −/− HeLa cells. […] Knocking-down PARK-7 with CRISP/Cas-9 leads to a reduced cell proliferation when compared to WT cells. […] Treatment with GA increases cell proliferation in HeLa cells.
Cell growth was determined by two different methods. The first method (WST1-Assay) was used to analyze cell growth at different time points using the same plates: 500 cells of 8 different PARK7 KO clones and HeLa Kyoto wild type cells were seeded in 96 well plates (6 wells/line). For each time point (0 h, 48 h, 122 h, and 144 h), WST1 was added to the cells according to the manufacturers instructions and incubated for 30 min at 37° C. Absorbance was measured at 450 nm and 620 nm using an EnVision Plate Reader (PerkinElmer).
The second method was used to analyze the rescue effect of GA and DL. Briefly, HeLa cells were seeded and treated with medium containing distilled water, 5 mM GA, or 5 mM DL. 48 hours later, the number of living cells was calculated with the help of an automated cell counter (ThermoFischer, USA).
HeLa-Kyoto PARK7 KO clones had been kindly provided by Martin Stewart (Koch Institute, MIT, Cambridge, USA). Briefly, cells were electroporated with the NEON device (Invitrogen) using a sgRNA-Cas9-NLS complex targeting human PARK7 at exon 1. […]

HeLa cells = experiment: NAD(P)H live-cell microscopy; type: cell-based; conditions: 5 mM, FIG. 13
Description: All values were referenced to the value obtained before substance addition.
NAD(P)H live-cell microscopy on HeLa cells was performed as previously described. Briefly, NAD(P)H fluorescence intensity time series were performed on a ZEISS LSM880 inverted confocal equipped with an incubation chamber to maintain 37 Celsius degree and 5% of CO2. […] In order to maximize the transmission efficiency of the system in excitation and detection and reduce the aberrations due to the watery environment, a ZEISS Plan C-ApoChromat 40×/1.2 Water lens with depth compensating correction collar was used. […] The sampling factor in XY (pixel size) of each image was equal to 208 nm, which lead to a final resolution of approximately 600 nm. For each image a volume of 5 μm around the specimen central plane was taken by acquiring 3 planes separated by a Z-step of 2.5 μm.
Time series measurements were obtained with 5 min time resolution. Fluorescence intensity levels were extracted using FIJI Image Analysis Freeware

dopaminergic neurons [4] = experiment: Survival of dopaminergic neurons with paraquat 25 μM challenge (Example 1, FIG. 1); type: cell-based, mouse
Description: Dopaminergic neurons were isolated and plated at a concentration of 1.000.000 cells/ml (100 μl/well) in a 96 well plate and cultured in medium with one or more of the various factors indicated, as described in the examples below. The survival of dopaminergic neurons in the presence and absence of various agents of the invention, either with or without paraquat challenge, is shown by the number of TH positive neurons normalized to the control treatment.
Dopaminergic neurons were isolated and plated at a concentration of 1.000.000 cells/ml (100 μl/well) in a 96 well plate. After 3-4 hours incubation at 37° C., 20 μl of medium was removed from each well. (VF=80 μl). Changes in medium and start point of the treatment were done in the following day in vitro (DIV). The following protocol was employed in order to assess the survival of dopaminergic neurons in the presence and absence of various agents of the invention combination, either with or without paraquat challenge. • DIV.1: Change half of medium N2 (40 μl) with fresh medium N2. • DIV.3: Change half of the medium and start with medium (control) or with medium A containing LA (different concentrations) and/or GA (normally 5 mM or 10 mM). Medium A is N2 medium but without FBS and N2-Supplement. • DIV.5: Second round of control or treatment with LA and/or GA. Half of the medium (40 μl) was replaced by fresh medium A with the different agents. • DIV.7: Paraquat 25 μM treatment starts with or without GA and L-alanine. Half of the medium (40 μl) was replaced by fresh medium A with the different treatment combinations or without (control). • DIV.9: Second day of treatment with Paraquat (PQ) 25 μM in addition to the other substances (LA and GA). • DIV.10: Fixation 2% of PFA during 20 min at 37° C. or overnight at 4° C.
as §1, with “EU). Then a 20 μL of medium was removed from the well and 24 h later, ⅓ of the media was replaced with fresh BM.” for “EU).”

dopaminergic neurons [5] = conditions: after DJ-1 knock-out or paraquat treatment; cited from earlier work

In the case of `O=C(O)CO` [GA, 2-hydroxyethanoic acid], the “GA dose at which the concentration of GA in the blood is too low” value [1] is reported as “lower than 50 mg/kg”, the “concentration in the CSF” value [1] is reported as “ca. 0.33 mM” and the “concentration in the blood” value [1] is reported as 2000 µM. For the same compound, the “concentration in the cerebrospinal fluid relative to blood (lower)” value [1] was “about 1:6”, the “morphology of dopaminergic neurons (neurite and axon length, secondary ramifications)” value (dopaminergic neurons [2]) was “increases the length of the neurites and the main axon and the number of secondary ramifications” and the “GA dose at which efficacious doses were first observed” value (patients with ALS) was “above 70 mg/kg”. The “kidney findings after administration” value [3] was “formation of hyperoxaluria and calcium oxalate precipitates”, the “cell proliferation (number of cells after 48 hours)” value (PARK-7 −/− HeLa cells) was “rescues cell proliferation defects” and the “mitochondrial NAD(P)H production” value (HeLa cells) was “increases mitochondrial NAD(P)H production”. For the same compound, the “survival of dopaminergic neurons (rescue)” value (dopaminergic neurons [4]; 5 mM GA with PQ 25 μM) was “rescue over PQ treatment alone”, the “survival of dopaminergic neurons (rescue)” value (dopaminergic neurons [4]; 10 mM GA with PQ 25 μM) was “rescued completely” and the “survival of dopaminergic neurons” value (dopaminergic neurons [5]) was “rescued the survival of dopaminergic neurons”.
